# Measured values published in patent US12448369B2 (Edgewise Therapeutics, Inc., priority 2023, dated 2025).
# Tests used:
# [1] = tested on: Rabbit Psoas myofibrils (skeletal myosin ATPase); experiment: Myofibril ATPase assay, rabbit psoas (skeletal) myofibrils; type: biochemical
# Procedure: (§1) Example 1. Myofibril ATPase Assay
# (§2) Myofibril ATPase assays are known in the art to be useful in evaluating small molecules for the treatment of HCM and other cardiac indications. Myosin ATPase activity is assessed by using a coupled reaction system, in which ADP generated by the myosin ATPase function is coupled to the disappearance of NADH through the pyruvate kinase/lactate dehydrogenase (PK-LDH) system. ATPase activity produces ADP, which is used as a substrate for PK to produce pyruvate and regenerate ATP. The pyruvate is then used as a substrate by LDH to oxidize NADH to NAD+. The rate of the reaction is monitored through the time-dependent disappearance of NADH using absorbance at 340 nm, which, when the couple system is in stoichiometric excess, is directly correlated to the ATPase activity of the myosin. Inhibition of ATPase activity by the assayed compounds is indicated by a reduced rate of NADH loss, relative to vehicle-treated controls, over the experimental time window. Activation of ATPase activity by the assayed compounds is indicated by an increased rate of NADH loss, relative to vehicle-treated controls, over the experimental time window. Rabbit Psoas, Porcine atria, and Porcine ventricle are the primary sources of myofibril material.
# (§3) Materials: The following stock solutions and reagents were used in the Myofibril ATPase Assay:
# (§4) Stock Solutions of pCa buffer. Combine PIPES, CaCl2, and EGTA solutions with water. Adjust pH to 7.0 and bring final volume to 100 mL.
# (§5) Buffer A & Buffer B. Prepare buffers A and B according to the table below.
# (§6) Myofibril ATPase Assay Procedure: BSA, ATP, NADH, PEP, and DTT solutions were thawed at room temperature, then transferred to ice. Pellet-frozen myofibrils were transferred with approximately twice the required volume into a sufficiently large tube and capped. Myofibrils were thawed by rolling in a water bath for approximately 15 min at room temperature and cooled on ice. Buffers A and B were prepared by adjusting volumes as necessary for required number of wells and stored on ice. 0.5 μL of the compounds to be assayed were added into wells. 25 μL of Buffer A was dispensed into the wells, followed by 25 μL of Buffer B. The wells were measured for absorbance at 340 nm, using a kinetic protocol in which the wells are read every 1.5-2 min for 75 min. Assay data analysis was performed using a python script that filtered the raw data to retain those points falling between a starting and ending time and between a maximum and minimum absorbance, then used the filtered time-domain 340 nm absorbance data in each well to calculate a slope via linear regression analysis in units of mAU/min. Compound slopes were normalized between 100% and 0% activity, where 100% represented the slope of wells containing only compound vehicle, and fit to a 4-parameter logistic model. In addition to the fit parameters, the EC25% values were calculated, relative to the 100% normalized value. Additionally, the Y125 values were calculated for compounds that increased myosin ATP-ase activity. Fit parameters, calculated effective concentrations, filtered raw data, and calculated slopes were exported, in addition to compound-specific graphs of normalized ATPase activity versus concentration in μM. Each value reported in Table 5, Table 6, and Table 7 is either a Y75 value or a Y125 value. Values without a double cross sign, ‡, are Y75 values, which reflect the concentration required to reduce myosin ATP-ase activity by 25% (e.g., Y-axis activity value is 75% of initial value), relative to myosin ATP-ase activity in the absence of exogenous compound.
# Skeletal Myofibril Isolation:
# (§7) Myofibrils from various animals and tissue types were acquired from a variety of sources: rabbit psoas muscle was purchased from Pel-Freez Biologicals (Rogers, AR) and porcine cardiac muscle was purchased from Exemplar Genetics. All myofibrils were prepared using a method based upon those described in Herrmann et al. (1993) and summarized here. […]
# [2] = tested on: Porcine atria myofibrils (atrial myosin ATPase); experiment: Myofibril ATPase assay, porcine atria myofibrils; type: biochemical
# Procedure: as §1, §2, §3, §4, §5, §6, §7
# [3] = target: T1, Porcine ventricle myofibrils (ventricular myosin ATPase) (Sus scrofa, UniProt P79293); experiment: Myofibril ATPase assay, porcine ventricle myofibrils; type: biochemical, porcine (Yucatan minipigs)
# T1 construct: Myofibrils from porcine cardiac muscle was isolated from the left ventricle of Yucatan minipigs; tissue Exemplar Genetics; host or cells: left ventricle of Yucatan minipigs, myofibrils prepared in house
# Procedure: as §1, §2, §3, §4, §5, §6
# Cardiac Myofibril Isolation:
# Myofibrils from porcine cardiac muscle was isolated from the left ventricle of Yucatan minipigs. Myofibrils were prepared using a method based upon those described in Herrmann et al. (1993) and summarized here. […]
# [4] = rabbit psoas myofibrils, Y75 value
# [5] = porcine atria myofibrils, Y75 value (75% activity relative to no compound)
# [6] = porcine ventricle myofibrils, Y75 value
# [7] = Y75 value (no ‡ mark), rabbit psoas myofibrils
# [8] = Y75 value (no ‡ mark), porcine atria myofibrils
# [9] = Y75 value (no ‡ mark), porcine ventricle myofibrils
# T1 sequence (P79293 whole entry): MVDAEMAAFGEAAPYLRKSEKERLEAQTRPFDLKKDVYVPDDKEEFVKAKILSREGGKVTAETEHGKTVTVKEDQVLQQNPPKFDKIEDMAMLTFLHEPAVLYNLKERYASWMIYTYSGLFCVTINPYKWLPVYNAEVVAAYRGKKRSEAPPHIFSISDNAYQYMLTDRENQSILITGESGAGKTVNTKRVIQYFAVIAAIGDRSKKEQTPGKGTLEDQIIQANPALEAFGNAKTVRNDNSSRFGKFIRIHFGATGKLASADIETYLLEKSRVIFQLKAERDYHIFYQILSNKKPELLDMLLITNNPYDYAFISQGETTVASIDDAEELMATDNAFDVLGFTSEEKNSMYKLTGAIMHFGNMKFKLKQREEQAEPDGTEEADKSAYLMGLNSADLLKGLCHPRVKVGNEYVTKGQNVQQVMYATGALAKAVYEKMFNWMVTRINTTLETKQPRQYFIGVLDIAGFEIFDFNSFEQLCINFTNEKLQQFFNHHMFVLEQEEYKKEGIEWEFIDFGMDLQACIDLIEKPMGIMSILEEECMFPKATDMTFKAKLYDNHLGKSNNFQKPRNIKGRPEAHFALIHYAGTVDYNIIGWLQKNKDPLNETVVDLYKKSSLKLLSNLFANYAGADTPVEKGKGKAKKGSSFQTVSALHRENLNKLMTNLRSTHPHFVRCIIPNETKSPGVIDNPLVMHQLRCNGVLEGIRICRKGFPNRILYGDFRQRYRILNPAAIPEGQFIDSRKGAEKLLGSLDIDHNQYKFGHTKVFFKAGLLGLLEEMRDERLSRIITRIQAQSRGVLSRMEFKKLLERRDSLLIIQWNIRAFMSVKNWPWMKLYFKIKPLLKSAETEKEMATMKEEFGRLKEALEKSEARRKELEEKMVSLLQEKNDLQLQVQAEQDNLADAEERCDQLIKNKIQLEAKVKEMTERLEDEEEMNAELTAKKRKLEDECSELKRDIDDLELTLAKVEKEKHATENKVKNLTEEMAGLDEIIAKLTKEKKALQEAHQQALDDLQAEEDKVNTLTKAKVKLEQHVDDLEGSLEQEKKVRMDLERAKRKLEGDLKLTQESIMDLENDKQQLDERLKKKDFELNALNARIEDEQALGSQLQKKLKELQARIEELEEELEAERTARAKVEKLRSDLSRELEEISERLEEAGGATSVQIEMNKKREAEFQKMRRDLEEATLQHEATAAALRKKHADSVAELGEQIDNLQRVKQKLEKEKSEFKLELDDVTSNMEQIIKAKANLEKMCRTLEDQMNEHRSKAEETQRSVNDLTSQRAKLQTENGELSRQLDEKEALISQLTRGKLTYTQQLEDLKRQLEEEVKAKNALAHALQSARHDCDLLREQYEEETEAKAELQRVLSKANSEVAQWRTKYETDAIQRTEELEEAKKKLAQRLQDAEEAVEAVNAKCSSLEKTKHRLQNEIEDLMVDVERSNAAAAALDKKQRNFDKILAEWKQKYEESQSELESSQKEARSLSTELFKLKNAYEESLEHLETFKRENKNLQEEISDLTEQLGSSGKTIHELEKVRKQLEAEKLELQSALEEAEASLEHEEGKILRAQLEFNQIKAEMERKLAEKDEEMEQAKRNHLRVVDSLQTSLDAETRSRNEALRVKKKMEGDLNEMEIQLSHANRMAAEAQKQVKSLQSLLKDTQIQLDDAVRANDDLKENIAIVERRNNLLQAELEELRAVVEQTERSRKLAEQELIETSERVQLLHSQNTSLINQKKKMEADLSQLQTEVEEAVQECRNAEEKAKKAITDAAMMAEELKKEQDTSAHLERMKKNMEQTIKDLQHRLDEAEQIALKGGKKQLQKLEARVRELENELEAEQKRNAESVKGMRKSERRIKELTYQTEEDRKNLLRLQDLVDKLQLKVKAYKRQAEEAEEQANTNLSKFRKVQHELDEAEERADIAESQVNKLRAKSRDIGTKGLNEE
Structure (SMILES),"Skeletal EC25 [1, 4]","Atrial EC25 [2, 5]","Ventricular EC25 [3, 6]","Skeletal EC25 [1, 7]","Atrial EC25 [2, 8]","Ventricular EC25 [3, 9]",further results
C[C@H](NC(=O)Cc1cc2cnccc2[nH]c1=O)c1ccc(F)cc1F [compound 441],1.88 µM,3.48 µM,100.00 µM,,,,
"Cc1nccc2[nH]c(=O)c(C(F)(F)C(=O)N[C@H](C)c3ccc(C#N)cc3F)c(C)c12 (single isomer, unassigned) [compound 3511]",0.26 µM,0.56 µM,2.65 µM,,,,
"Cc1nc(C#N)cnc1[C@H](C)NC(=O)Cc1cc2cc(F)c(F)cc2[nH]c1=O (single isomer, unassigned) [compound 6]",,,,0.30 µM,0.81 µM,0.95 µM,
Cc1c(CC(=O)N[C@@H](CO)c2ccc(F)cc2F)c(=O)[nH]c2ccnc(OC3CC3)c12 [compound 200],0.19 µM,3.03 µM,100.00 µM,,,,
Cc1c(CC(=O)N[C@@H](C)c2ccc(C#N)cc2F)c(=O)[nH]c2ccc(F)c(F)c12 [compound 66],,,,0.01 µM,0.05 µM,0.06 µM,
Cc1nc(C#N)ncc1[C@@H](C)NC(=O)Cc1c(C)c2cc(F)ccc2[nH]c1=O [compound 1052],,,,0.78 µM,0.65 µM,7.05 µM,
"Cc1nccc2[nH]c(=O)c(CC(=O)N[C@H]3CNc4cc(F)cc(F)c43)c(C)c12 (single isomer, unassigned) [compound 182]",1.76 µM,8.60 µM,35.91 µM,,,,
"Cc1c(C(F)(F)C(=O)N[C@@H]2CCc3cc(C#N)cnc32)c(=O)[nH]c2ccc(F)cc12 (single isomer, unassigned) [compound 2515]",,,,100.00 µM,5.06 µM,100.00 µM,
Cc1c(F)ccc2[nH]c(=O)c(CC(=O)N[C@H](C)c3ncc(F)cc3F)c(C#N)c12 [compound 1147],,,,1.01 µM,2.84 µM,0.94 µM,
Cc1nc(C#N)ncc1[C@H](C)NC(=O)Cc1c(C)c2c(C)nccc2[nH]c1=O [compound 465],47.72 µM,100.00 µM,100.00 µM,,,,
Cc1nccc2[nH]c(=O)c(CC(=O)NC[C@@H](CO)c3ccccc3)c(C)c12 [compound 494],100.00 µM,100.00 µM,100.00 µM,,,,
"Cc1nccc2[nH]c(=O)c(CC(=O)N[C@@H](C)c3ccc(C#N)cn3)c(C)c12 (single isomer, unassigned) [compound 254]",1.78 µM,18.17 µM,23.41 µM,,,,
"Cc1c(C(F)(F)C(=O)N[C@H](C)c2ncc(C#N)cn2)c(=O)[nH]c2ccc(F)c(C(F)(F)F)c12 (single isomer, unassigned) [Compound 2513]",,,,0.34 µM,0.43 µM,1.62 µM,
Cc1c(CC(=O)N[C@@H](C)c2ccc(F)cc2F)c(=O)[nH]c2ccnc(F)c12 [compound 391],0.01 µM,0.05 µM,0.29 µM,,,,
"Cc1c(CC(=O)N[C@H](C)c2ncc(F)cc2F)c(=O)[nH]c2ccnc(C#N)c12 (single isomer, unassigned) [compound 304]",1.57 µM,17.26 µM,100.00 µM,,,,
"Cc1c([C@H](C)C(=O)N[C@@H](C)c2ccc(F)cc2F)c(=O)[nH]c2ccnc(F)c12 (single isomer, unassigned) [compound 375]",0.17 µM,0.27 µM,4.58 µM,,,,
"Cc1c(C(F)(F)C(=O)N[C@@H](C)c2ncc(C#N)cn2)c(=O)[nH]c2ccc(F)c(C#N)c12 (single isomer, unassigned) [compound 2522]",,,,0.14 µM,0.32 µM,0.72 µM,
"Cc1c(C2(C(=O)N[C@H](C)c3cccc(C#N)n3)CC2)c(=O)[nH]c2ccc(F)c(F)c12 (single isomer, unassigned) [compound 2547]",,,,0.91 µM,,,"Atrial EC25 ([2]; ‡ Y125 value, not a Y75 value (125% activity relative to no compound), porcine atria myofibrils): 100.00‡ μM; Ventricular EC25 ([3]; ‡ Y125 value, not a Y75 value (125% activity relative to no compound), porcine ventricle myofibrils): 58.38‡ μM"
"Cc1nccc2[nH]c(=O)c(CC(=O)N[C@@H](C)c3cccnc3)c(C)c12 (single isomer, unassigned) [compound 323]",100.00 µM,100.00 µM,100.00 µM,,,,
Cc1c(CC(=O)N[C@H]2COc3cc(C#N)cnc32)c(=O)[nH]c2ccc(F)cc12 [compound 1063],,,,0.22 µM,0.16 µM,0.76 µM,
Cc1c(CC(=O)N[C@H](C)c2ccc(C#N)cc2F)c(=O)[nH]c2ccnc(C(F)(F)F)c12 [compound 161],0.11 µM,0.34 µM,1.19 µM,,,,
C[C@H](NC(=O)Cc1cc2cc(C#N)ccc2[nH]c1=O)c1ccc(F)cc1F [compound 121],,,,3.75 µM,100.00 µM,100.00 µM,
COc1ccc2[nH]c(=O)c(CC(=O)N[C@@H](C)c3ccc(F)cc3F)cc2c1 [compound 124],,,,42.44 µM,100.00 µM,100.00 µM,
"C[C@@H](NC(=O)C1(c2cc3cc(F)ccc3[nH]c2=O)CC1)c1cccc(C#N)n1 (single isomer, unassigned) [compound 2534]",,,,,15.93 µM,100.00 µM,"Skeletal EC25 ([1]; ‡ Y125 value, not a Y75 value (125% activity relative to no compound), rabbit psoas myofibrils): 37.90‡ μM"
"Cc1nccc2[nH]c(=O)c(CC(=O)N[C@H](CCO)c3ccc(F)cc3F)c(C)c12 (single isomer, unassigned) [compound 341]",100.00 µM,100.00 µM,100.00 µM,,,,
Cc1ncc(C#N)nc1C(C)NC(=O)Cc1c(C)c2c(C)nccc2[nH]c1=O (stereo not drawn) [compound 461],100.00 µM,94.45 µM,15.98 µM,,,,
C[C@H](NC(=O)Cc1c(C(F)(F)F)c2c(C3CC3)nccc2[nH]c1=O)c1ccc(F)cc1F [compound 421],0.20 µM,100.00 µM,100.00 µM,,,,
"C[C@H](NC(=O)Cc1c(C2CC2)c2c(F)c(F)ccc2[nH]c1=O)c1ccc(C#N)nn1 (single isomer, unassigned) [compound 2066]",,,,0.15 µM,1.06 µM,7.88 µM,
"C[C@@H](NC(=O)Cc1cc2c(F)c(F)ccc2[nH]c1=O)c1nc(C#N)co1 (single isomer, unassigned) [compound 4006]",,,,,,,"Skeletal EC25 ([1]; Y75 value: concentration required to reduce myosin ATP-ase activity by 25%, Rabbit Psoas Prep pCa 25 GEOM_MEAN): 1.11 µM; Atrial EC25 ([2]; Y75 value: concentration required to reduce myosin ATP-ase activity by 25%, Porcine Atria Prep pCa 25 GEOM_MEAN): 0.74 µM; Ventricular EC25 ([3]; Y75 value: concentration required to reduce myosin ATP-ase activity by 25%, Porcine Ventricle Prep pCa 25 GEOM_MEAN): 6.66 µM"
